Experiment [1] relates to Gram-positive Staphylococcus aureus (S. aureus) 29213. In words: Antibacterial activity, microbroth dilution MIC, S. aureus 29213. It is filed as cell-based. The conditions noted are these: Staphylococcus aureus; S. aureus 29213, microbroth dilution; read-out: MIC, 29213.
In experiment [2] the test system is E. coli ELZ4000 (MDR clinical isolate). In words: Antibacterial activity, MIC, MDR E. coli ELZ4000. The note with it: Escherichia coli; E. coli ELZ4000, MDR clinical isolate; read-out: MIC ELZ4000. It is filed as cell-based, Escherichia coli.
Experiment [3] concerns E. coli ELZ4251 (MDR clinical isolate). In words: Antibacterial activity, MIC, MDR E. coli ELZ4251. Type of experiment: cell-based, Escherichia coli. The note with it: Escherichia coli, E. coli ELZ4251, MDR clinical isolate; read-out: MIC ELZ4251.
Experiment [4] relates to Moraxella catarrhalis (M. catarrhalis) 25238. In words: Antibacterial activity, MIC, M. catarrhalis 25238. Type of experiment: cell-based. The conditions noted are these: Moraxella catarrhalis, M. catarrhalis 25238; read-out: MIC 25238.
The test system of experiment [5] is quinolone resistant E. coli LZ3111. In words: Antibacterial activity, MIC, quinolone resistant E. coli LZ3111. It is filed as cell-based, Escherichia coli. The note with it: Escherichia coli, read-out: MIC, LZ3111. From the text: (§1) The antibacterial activity from a microbroth dilution method may be presented as the minimum inhibitory concentration (MIC in […]). The MIC value is the lowest concentration of a drug which prevents macroscopically visible bacterial growth under test conditions.
Mutations in these regions are known to confer a high level resistance to the quinolone class of antibiotics.

For experiment [6], the system named is Neisseria meningitidis (N. meningitidis) 13090. In words: Antibacterial activity, MIC, N. meningitidis 13090. Type of experiment: cell-based. The conditions noted are these: Neisseria meningitidis; N. meningitidis 13090; read-out: MIC 13090.
For experiment [7], the system named is control Gram-negative E. coli 25922 strain. In words: Antibacterial activity, microbroth dilution MIC, E. coli 25922. It is filed as cell-based, Escherichia coli. The note with it: Escherichia coli; E. coli 25922, microbroth dilution; read-out: MIC, 25922.
Experiment [8] concerns Haemophilus influenzae (H. influenzae) 49247. In words: Antibacterial activity, MIC, H. influenzae 49247. Type of experiment: cell-based. The conditions noted are these: Haemophilus influenzae; H. influenzae 49247; read-out: MIC 49247.
Source text: as §1
Antibacterial activity of test compounds against the Gram-negative bacteria Haemophilus influenzae (H. influenzae) 49247, Moraxella catarrhalis (M. catarrhalis) 25238 and Neisseria meningitidis (N. meningitidis) 13090 is shown in Table 6.

For experiment [9], the system named is super sensitive Gram-negative Escherichia coli (E. coli) BAS849. In words: Antibacterial activity, microbroth dilution MIC, E. coli BAS849. The conditions noted are these: Escherichia coli, read-out: MIC, BAS849. Type of experiment: cell-based. On the technique in general: Broth dilution looks for growth in wells or tubes with falling amounts of substance.
The mark [10] stands for this setting: E. coli BAS849, microbroth dilution.

Values after ≈ are worked out from the molar mass of the structure shown. Where two headings read alike, the source gives them in different places.

Turning to `CCc1cc(C(=O)O)c(=O)[nH]c1-c1ccc(N(C)CCO)cc1` [Cpd 17, 5-ethyl-6-{4-[(2-hydroxyethyl)(methyl)amino]phenyl}-2-oxo-1,2-dihydropyridine-3-carboxylic acid], the MIC in experiment [1] is 12.5 to 150 µg/mL (≈ 39.5 to 474 µM); in experiment [2], 12.5 to 150 µg/mL (≈ 39.5 to 474 µM); in [3] it was 12.5 to 150 µg/mL (≈ 39.5 to 474 µM); in [4] it was less than 1 µg/mL; in [5], 12.5 to 150 µg/mL (≈ 39.5 to 474 µM); in experiment [6] it was less than 1 µg/mL. Besides, the MIC in [7] was 3.5 to 12.5 µg/mL (≈ 11.1 to 39.5 µM); in [8] it was less than 1 µg/mL; in experiment [9] (setting [10]) it was less than 1 µg/mL.

For `CCc1c(-c2ccc(N3CCNCC3)cc2)[nH]c(=O)c(C(=O)O)c1O.O=C(O)C(F)(F)F` [Cpd 105, 5-ethyl-4-hydroxy-2-oxo-6-[4-(piperazin-1-yl)phenyl]-1,2-dihydropyridine-3-carboxylic acid trifluoroacetate], the MIC was in the range of 12.5 to 150 µg/mL in [1]; 12.5 to 150 µg/mL in experiment [2]; 12.5 to 150 µg/mL in [3]; 3.5 to 12.5 µg/mL in [4]; 12.5 to 150 µg/mL in [5]; 1 to 3.5 µg/mL in experiment [6]. The MIC in experiment [7] was in the range of 3.5 to 12.5 µg/mL; in experiment [8] it was 3.5 to 12.5 µg/mL; in experiment [9], 1 to 3.5 µg/mL.

As to `CCc1cc(C(=O)O)c(=O)[nH]c1-c1ccc(-n2ccnc2)cc1` [Cpd 106, 5-ethyl-6-[4-(1H-imidazol-1-yl)phenyl]-2-oxo-1,2-dihydropyridine-3-carboxylic acid], the MIC is 12.5 to 150 µg/mL (≈ 40.4 to 485 µM) in experiment [1]; 12.5 to 150 µg/mL (≈ 40.4 to 485 µM) in experiment [4]; 3.5 to 12.5 µg/mL (≈ 11.3 to 40.4 µM) in [6]; 12.5 to 150 µg/mL (≈ 40.4 to 485 µM) in [7]; less than 1 µg/mL in experiment [8]; 12.5 to 150 µg/mL (≈ 40.4 to 485 µM) in experiment [9] (setting [10]).

Take `CCc1c(-c2ccc(N3CCCCC3)cc2)[nH]c(=O)c(C(=O)O)c1O` [Cpd 109, 5-ethyl-4-hydroxy-2-oxo-6-[4-(piperidin-1-yl)phenyl]-1,2-dihydropyridine-3-carboxylic acid]: the MIC was 3.5 to 12.5 µg/mL (≈ 10.2 to 36.5 µM) in experiment [1]; less than 1 µg/mL in experiment [4]; less than 1 µg/mL in [6]; 12.5 to 150 µg/mL (≈ 36.5 to 438 µM) in [7]; less than 1 µg/mL in experiment [8]; less than 1 µg/mL in [9] (setting [10]).

For `CCc1cc(C(=O)O)c(=O)[nH]c1-c1ccc(N2CCCC2=O)cc1` [Cpd 114, 5-ethyl-2-oxo-6-[4-(2-oxopyrrolidin-1-yl)phenyl]-1,2-dihydropyridine-3-carboxylic acid], the MIC is 12.5 to 150 µg/mL (≈ 38.3 to 460 µM) in experiment [1]; less than 1 µg/mL in experiment [4]; less than 1 µg/mL in [6]; 12.5 to 150 µg/mL (≈ 38.3 to 460 µM) in experiment [7]; less than 1 µg/mL in [8]; 1 to 3.5 µg/mL (≈ 3.06 to 10.7 µM) in experiment [9] (setting [10]).

`CCc1cc(C(=O)O)c(=O)[nH]c1-c1ccc(N2CC(O)C2)cc1` [Cpd 121, 5-ethyl-6-[4-(3-hydroxyazetidin-1-yl)phenyl]-2-oxo-1,2-dihydropyridine-3-carboxylic acid]: the MIC in experiment [1] is 12.5 to 150 µg/mL (≈ 39.8 to 477 µM); in [2] it was 12.5 to 150 µg/mL (≈ 39.8 to 477 µM); in [3] it was 12.5 to 150 µg/mL (≈ 39.8 to 477 µM); in experiment [4], less than 1 µg/mL; in experiment [5], 12.5 to 150 µg/mL (≈ 39.8 to 477 µM); in [6], less than 1 µg/mL. The values for the MIC in experiment [7], in experiment [8] and in experiment [9] (setting [10]) were 3.5 to 12.5 µg/mL (≈ 11.1 to 39.8 µM), less than 1 µg/mL and less than 1 µg/mL, respectively.

`CCc1cc(C(=O)O)c(=O)[nH]c1-c1ccc(N2CC[C@H](N)C2)cc1.Cl` [Cpd 132, 6-{4-[(3S)-3-aminopyrrolidin-1-yl]phenyl}-5-ethyl-2-oxo-1,2-dihydropyridine-3-carboxylic acid hydrochloride]: the MIC was 3.5 to 12.5 µg/mL in experiment [1]; 12.5 to 150 µg/mL in experiment [2]; 12.5 to 150 µg/mL in [3]; less than 1 µg/mL in experiment [4]; 12.5 to 150 µg/mL in experiment [5]; less than 1 µg/mL in experiment [6]. Also, the MIC in [7] is 1 to 3.5 µg/mL; in experiment [8] it was less than 1 µg/mL; in experiment [9] (setting [10]), less than 1 µg/mL.

Consider `CCc1cc(C(=O)O)c(=O)[nH]c1-c1ccc(N2CC3CC2CN3)cc1.O=C(O)C(F)(F)F` (stereo not drawn) [Cpd 138, 6-[4-(2,5-diazabicyclo[2.2.1]hept-2-yl)phenyl]-5-ethyl-2-oxo-1,2-dihydropyridine-3-carboxylic acid trifluoroacetate], for which the MIC in experiment [1] was 12.5 to 150 µg/mL; in experiment [4], less than 1 µg/mL; in experiment [6] it was 12.5 to 150 µg/mL; in [7], 12.5 to 150 µg/mL; in experiment [8], 12.5 to 150 µg/mL; in experiment [9] it was 12.5 to 150 µg/mL.

Consider `CCc1cc(C(=O)O)c(=O)[nH]c1-c1ccc(N2CCC[C@H]2C(F)(F)F)cc1` [Cpd 142, 5-ethyl-2-oxo-6-{4-[(2S)-2-(trifluoromethyl)pyrrolidin-1-yl]phenyl}-1,2-dihydropyridine-3-carboxylic acid], for which the MIC in [1] was 12.5 to 150 µg/mL (≈ 32.9 to 394 µM); in experiment [4], 1 to 3.5 µg/mL (≈ 2.63 to 9.2 µM); in [6], less than 1 µg/mL; in experiment [7], 12.5 to 150 µg/mL (≈ 32.9 to 394 µM); in [8], 3.5 to 12.5 µg/mL (≈ 9.2 to 32.9 µM); in experiment [9] (setting [10]), 1 to 3.5 µg/mL (≈ 2.63 to 9.2 µM).

In the case of `CCc1cc(C(=O)O)c(=O)[nH]c1-c1ccc(N2CCCC2c2ccccc2)cc1` (stereo not drawn) [Cpd 145, 5-ethyl-2-oxo-6-[4-(2-phenylpyrrolidin-1-yl)phenyl]-1,2-dihydropyridine-3-carboxylic acid], the MIC is 1 to 3.5 µg/mL (≈ 2.57 to 9.01 µM) in [1]; less than 1 µg/mL in experiment [4]; less than 1 µg/mL in [6]; 12.5 to 150 µg/mL (≈ 32.2 to 386 µM) in experiment [7]; less than 1 µg/mL in experiment [8]; less than 1 µg/mL in experiment [9] (setting [10]).

In the case of `CCc1cc(C(=O)O)c(=O)[nH]c1-c1ccc(N2CCC[C@H]2COC)cc1` [Cpd 146, 5-ethyl-6-{4-[(2S)-2-(methoxymethyl)pyrrolidin-1-yl]phenyl}-2-oxo-1,2-dihydropyridine-3-carboxylic acid], the MIC in experiment [1] is 12.5 to 150 µg/mL (≈ 35.1 to 421 µM); in experiment [4], less than 1 µg/mL; in experiment [6], less than 1 µg/mL; in [7], 12.5 to 150 µg/mL (≈ 35.1 to 421 µM); in [8], 1 to 3.5 µg/mL (≈ 2.81 to 9.82 µM); in [9] (setting [10]), less than 1 µg/mL.

With `CCc1cc(C(=O)O)c(=O)[nH]c1-c1ccc(N2[C@H](COC)CC[C@H]2COC)cc1` [Cpd 148, 6-{4-[(2S,5S)-2,5-bis(methoxymethyl)pyrrolidin-1-yl]phenyl}-5-ethyl-2-oxo-1,2-dihydropyridine-3-carboxylic acid], the MIC was 12.5 to 150 µg/mL (≈ 31.2 to 375 µM) in experiment [1]; 12.5 to 150 µg/mL (≈ 31.2 to 375 µM) in experiment [4]; 3.5 to 12.5 µg/mL (≈ 8.74 to 31.2 µM) in experiment [6]; 12.5 to 150 µg/mL (≈ 31.2 to 375 µM) in [7]; 12.5 to 150 µg/mL (≈ 31.2 to 375 µM) in experiment [8]; 3.5 to 12.5 µg/mL (≈ 8.74 to 31.2 µM) in [9] (setting [10]).

Take `CCc1cc(C(=O)O)c(=O)[nH]c1-c1ccc(N2CCCC2c2nccs2)cc1` (stereo not drawn) [Cpd 156, 5-ethyl-2-oxo-6-{4-[2-(1,3-thiazol-2-yl)pyrrolidin-1-yl]phenyl}-1,2-dihydropyridine-3-carboxylic acid]: the MIC in [1] is 12.5 to 150 µg/mL (≈ 31.6 to 379 µM); in experiment [4], less than 1 µg/mL; in experiment [6] it was less than 1 µg/mL; in experiment [7] it was 12.5 to 150 µg/mL (≈ 31.6 to 379 µM); in experiment [8], less than 1 µg/mL; in [9] (setting [10]), less than 1 µg/mL.

`CCc1c(-c2ccc(N(C)C)cc2)[nH]c(=O)c(C(=O)O)c1OC` [Cpd 298, 6-[4-(dimethylamino)phenyl]-5-ethyl-4-methoxy-2-oxo-1,2-dihydropyridine-3-carboxylic acid]: the MIC in experiment [1] is 12.5 to 150 µg/mL (≈ 39.5 to 474 µM); in experiment [4], 12.5 to 150 µg/mL (≈ 39.5 to 474 µM); in [6] it was 3.5 to 12.5 µg/mL (≈ 11.1 to 39.5 µM); in [7] it was 12.5 to 150 µg/mL (≈ 39.5 to 474 µM); in experiment [8], 3.5 to 12.5 µg/mL (≈ 11.1 to 39.5 µM); in experiment [9] (setting [10]), 3.5 to 12.5 µg/mL (≈ 11.1 to 39.5 µM).

Values taken from patent publication US9650395B2, “Antibacterial compounds and methods for use” (PTC Therapeutics, Inc., priority 2011, dated 2017).
